Each molecule was assayed against Human factor D (Homo sapiens (Human), UniProt P00746) (assay: Human Factor D Assay). Settings: human factor D 80 nM, substrate Z-L-Lys-SBzl, DTNB, OD405.
Human factor D, sequence (P00746 26-253): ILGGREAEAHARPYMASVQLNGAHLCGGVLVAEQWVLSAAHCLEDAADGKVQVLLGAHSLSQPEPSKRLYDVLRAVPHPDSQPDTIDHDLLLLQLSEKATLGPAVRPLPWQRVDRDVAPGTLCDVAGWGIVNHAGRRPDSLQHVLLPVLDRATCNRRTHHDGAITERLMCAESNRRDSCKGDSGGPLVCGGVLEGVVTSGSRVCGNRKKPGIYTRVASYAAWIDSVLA
Assay type: biochemical
Protocol: Human factor D (purified from human serum, Complement Technology, Inc.) at 80 nM final concentration is incubated with test compound at various concentrations for 5 minutes at room temperature in 50 mM Tris, 1M NaCl, pH 7.5. A synthetic substrate Z-L-Lys-SBzl and DTNB (Ellman's reagent) are added to final concentrations of 10 μM each. The increase in color is recorded at OD405 nm in a microplate in kinetic mode over 30 minutes with 30 second time points in a […]. IC50 values are calculated by non-linear regression from the percentage of inhibition of complement factor D activity as a function of test compound concentration.
`CC(=O)c1cn(CC(=O)N2C[C@H](F)C[C@H]2C(=O)Nc2cccc(-c3ccc(F)c(F)c3Cl)c2F)c2ccccc12` [Compound 93, (2S,4R)-1-(2-(3-acetyl-1H-indol-1-yl)acetyl)-N-(2′-chloro-2,3′,4′-trifluorobiphenyl-3-yl)-4-fluoropyrrolidine-2-carboxamide] gave an IC50 of under 1 µM. `O=C1CCCc2c1c1ccccc1n2CC(=O)N1C[C@H](F)C[C@H]1C(=O)NCc1cccc(Cl)c1F` [Compound 37, (2S,4R)-N-(3-chloro-2-fluorobenzyl)-4-fluoro-1-(2-(4-oxo-3,4-dihydro-1H-carbazol-9(2H)-yl)acetyl)pyrrolidine-2-carboxamide] gave an IC50 of under 1 µM. `CC(=O)n1cc(NC(=O)[C@H]2CC(F)(F)CN2C(=O)Cc2cccc(Cl)c2F)c2ccccc21` [Compound 17, (R)-N-(1-acetyl-1H-indol-3-yl)-1-(2-(3-chloro-2-fluorophenyl)acetyl)-4,4-difluoropyrrolidine-2-carboxamide] showed an IC50 of over 10 µM. Work on `CC(=O)c1cn(CC(=O)N2C[C@H](F)C[C@H]2C(=O)Nc2cccc(-c3cc(F)cc(F)c3Cl)c2F)c2ccccc12` [Compound 95, (2S,4R)-1-(2-(3-acetyl-1H-indol-1-yl)acetyl)-N-(2′-chloro-2,3′,5′-trifluorobiphenyl-3-yl)-4-fluoropyrrolidine-2-carboxamide] yielded an IC50 of under 1 µM. Molecule `N#Cc1cccc2c(C(N)=O)nn(CC(=O)N3C[C@H](F)C[C@H]3C(=O)Nc3cccc(-c4ccccc4Cl)c3F)c12` [Compound 111, 1-(2-((2S,4R)-2-(2′-chloro-2-fluorobiphenyl-3-ylcarbamoyl)-4-fluoropyrrolidin-1-yl)-2-oxoethyl)-7-cyano-1H-indazole-3-carboxamide] has an IC50 of under 1 µM. In the case of `CC(=O)c1cn(CC(=O)N2C[C@H](F)C[C@H]2C(=O)Nc2cccc(SC(F)(F)F)c2)c2cc(O)ccc12` [Compound 48, (2S,4R)-1-(2-(3-acetyl-6-hydroxy-1H-indol-1-yl)acetyl)-4-fluoro-N-(3-(trifluoromethylthio)phenyl)pyrrolidine-2-carboxamide], the IC50 is reported as under 1 µM. For `NC(=O)c1nn(CC(=O)N2C[C@H](F)C[C@H]2C(=O)Nc2cccc(-c3c(F)cc(F)cc3Cl)c2)c2cnccc12` [Compound 101, 1-(2-((2S,4R)-2-(2′-chloro-4′,6′-difluorobiphenyl-3-ylcarbamoyl)-4-fluoropyrrolidin-1-yl)-2-oxoethyl)-1H-pyrazolo[3,4-c]pyridine-3-carboxamide], the IC50 was under 1 µM. Work on `CC(=O)c1cn(C(C)(C)C(=O)N2C[C@H](F)C[C@H]2C(=O)NCc2cccc(Cl)c2F)c2ccccc12` [Compound 56] yielded an IC50 of over 10 µM. Work on `NC(=O)c1nn(CC(=O)N2C[C@H](F)C[C@H]2C(=O)Nc2cccc(Br)n2)c2ccsc12` [Compound 106, 1-(2-((2S,4R)-2-(6-bromopyridin-2-ylcarbamoyl)-4-fluoropyrrolidin-1-yl)-2-oxoethyl)-1H-thieno[3,2-c]pyrazole-3-carboxamide] yielded an IC50 of under 1 µM. `CC(=O)Nc1ccc(C(=O)N2C[C@H](F)C[C@H]2C(=O)NCc2cccc(Cl)c2F)cn1` [Compound 51, (2S,4R)-1-(6-acetamidonicotinoyl)-N-(3-chloro-2-fluorobenzyl)-4-fluoropyrrolidine-2-carboxamide] was tested, and the IC50 was over 10 µM. With `NC(=O)N1CC(NC(=O)[C@@H]2CCC[C@H]2C(=O)NCc2cccc(Cl)c2F)c2ccccc21` (stereo partly drawn) [Compound 26, (1R,2R)-N1-(1-carbamoylindolin-3-yl)-N2-(3-chloro-2-fluorobenzyl)cyclopentane-1,2-dicarboxamide] the IC50 was over 10 µM. With `NS(=O)(=O)c1cn(CC(=O)N2C[C@H](F)C[C@H]2C(=O)NCc2cccc(Cl)c2F)c2ccccc12` [Compound 76, (2S,4R)-N-(3-chloro-2-fluorobenzyl)-4-fluoro-1-(2-(3-sulfamoyl-1H-indol-1-yl)acetyl)pyrrolidine-2-carboxamide] the IC50 was under 1 µM. With `CC(=O)c1cn(CC(=O)N2C[C@H](F)C[C@H]2C(=O)Nc2cccc(Br)n2)c2ccc(C3(NC(=O)c4ncccn4)CC3)cc12` [Compound 119, N-(1-(3-acetyl-1-(2-((2S,4R)-2-(6-bromopyridin-2-ylcarbamoyl)-4-fluoropyrrolidin-1-yl)-2-oxoethyl)-1H-indol-5-yl)cyclopropyl)pyrimidine-2-carboxamide] the IC50 was under 1 µM. Molecule `CC(=O)n1cc(NC(=O)[C@@H]2C[C@H](F)CN2C(=O)NCc2ccccc2)c2ccccc21` [Compound 5, (2S,4S)-N2-(1-acetyl-1H-indol-3-yl)-N1-benzyl-4-fluoropyrrolidine-1,2-dicarboxamide] has an IC50 of over 10 µM. Work on `CC(=O)n1cc(NC(=O)[C@@H]2C[C@@H](F)CN2C(=O)NCc2cccc(Cl)c2F)c2ccccc21` [Compound 3, (2S,4R)-N2-(1-acetyl-1H-indol-3-yl)-N1-(3-chloro-2-fluorobenzyl)-4-fluoropyrrolidine-1,2-dicarboxamide] yielded an IC50 of over 10 µM. Work on `COc1ncc(-c2cn(CC(=O)N3C[C@H](F)C[C@H]3C(=O)Nc3cccc(-c4ccccc4Cl)c3F)nc2C(N)=O)cn1` [Compound 110, 1-(2-((2S,4R)-2-(2′-chloro-2-fluorobiphenyl-3-ylcarbamoyl)-4-fluoropyrrolidin-1-yl)-2-oxoethyl)-4-(2-methoxypyrimidin-5-yl)-1H-pyrazole-3-carboxamide] yielded an IC50 of over 10 µM. For `NC(=O)N1C[C@H](F)C[C@H]1Cn1cc(-c2ccc(F)c(Cl)c2)nn1` [Compound 30, (2S,4R)-2-((4-(3-chloro-4-fluorophenyl)-1H-1,2,3-triazol-1-yl)methyl)-4-fluoropyrrolidine-1-carboxamide], the IC50 was over 10 µM. `CC(=O)n1cc(CC(=O)N2C[C@H](F)C[C@H]2C(=O)Nc2cccc(-c3ccccc3Cl)c2F)c2ccsc21` [Compound 90, (2S,4R)-1-(2-(6-acetyl-6H-thieno[2,3-b]pyrrol-4-yl)acetyl)-N-(2′-chloro-2-fluorobiphenyl-3-yl)-4-fluoropyrrolidine-2-carboxamide] showed an IC50 of under 1 µM. With `CC(=O)c1cn(CC(=O)N2C[C@H](F)C[C@H]2Cn2cc(-c3ccc(F)cc3)nn2)c2ccccc12` [Compound 27, 2-(3-acetyl-1H-indol-1-yl)-1-((2S,4R)-4-fluoro-2-((4-(4-fluorophenyl)-1H-1,2,3-triazol-1-yl)methyl)pyrrolidin-1-yl)ethanone] the IC50 was over 10 µM. Work on `O=C(O)CCC(=O)N1CCc2c(n(CC(=O)N3C[C@H](F)C[C@H]3C(=O)NCc3cccc(Cl)c3F)c3ccccc23)C1` [Compound 72, 4-(9-(2-((2S,4R)-2-(3-chloro-2-fluorobenzylcarbamoyl)-4-fluoropyrrolidin-1-yl)-2-oxoethyl)-3,4-dihydro-1H-pyrido[3,4-b]indol-2(9H)-yl)-4-oxobutanoic acid] yielded an IC50 of over 10 µM. In the case of `NC(=O)c1nn(CC(=O)N2C[C@H](F)C[C@H]2C(=O)Nc2cccc(-c3cc(OC(F)(F)F)ccc3Cl)c2F)c2ccccc12` [Compound 120, 1-(2-((2S,4R)-2-(2′-chloro-2-fluoro-5′-(trifluoromethoxy)biphenyl-3-ylcarbamoyl)-4-fluoropyrrolidin-1-yl)-2-oxoethyl)-1H-indazole-3-carboxamide], the IC50 is reported as under 1 µM. Molecule `NC(=O)c1nn(CC(=O)N2C[C@H](F)C[C@H]2C(=O)Nc2cccc(-c3ccc(F)c(F)c3Cl)c2F)c2ccccc12` [Compound 92, 1-(2-((2S,4R)-2-(2′-chloro-2,3′,4′-trifluorobiphenyl-3-ylcarbamoyl)-4-fluoropyrrolidin-1-yl)-2-oxoethyl)-1H-indazole-3-carboxamide] has an IC50 of under 1 µM. Work on `CC(=O)c1cn(CC(=O)N2C[C@H](F)C[C@H]2C(=O)N2Cc3ccccc3C2)c2ccccc12` [Compound 33, 2-(3-acetyl-1H-indol-1-yl)-1-((2S,4R)-4-fluoro-2-(isoindoline-2-carbonyl)pyrrolidin-1-yl)ethanone] yielded an IC50 of over 10 µM. `N[C@@H](Cc1c[nH]c2ccccc12)C(=O)N1C[C@H](F)C[C@H]1C(=O)NCc1cccc(Cl)c1F` [Compound 39, (2S,4R)-1-((S)-2-amino-3-(1H-indol-3-yl)propanoyl)-N-(3-chloro-2-fluorobenzyl)-4-fluoropyrrolidine-2-carboxamide] was tested, and the IC50 was over 10 µM. For `NC(=O)c1cn(CC(=O)N2C[C@H](F)C[C@H]2C(=O)Nc2cccc(-c3ccccc3Cl)c2F)c2sccc12` [Compound 98, 6-(2-((2S,4R)-2-(2′-chloro-2-fluorobiphenyl-3-ylcarbamoyl)-4-fluoropyrrolidin-1-yl)-2-oxoethyl)-6H-thieno[2,3-b]pyrrole-4-carboxamide], the IC50 was under 1 µM. `O=C(c1cn(CC(=O)N2C[C@H](F)C[C@H]2C(=O)NCc2cccc(Cl)c2F)c2ccccc12)C1CC1` [Compound 24, (2S,4R)-N-(3-chloro-2-fluorobenzyl)-1-(2-(3-(cyclopropanecarbonyl)-1H-indol-1-yl)acetyl)-4-fluoropyrrolidine-2-carboxamide] gave an IC50 of under 1 µM. `CC(=O)c1cn(CC(=O)N2C[C@H](F)C[C@H]2C(=O)Nc2cccc(Br)n2)c2ccc(C3(N4C(=O)c5ccccc5C4=O)CC3)cc12` [Compound 81, (2S,4R)-1-(2-(3-acetyl-5-(1-(1,3-dioxoisoindolin-2-yl)cyclopropyl)-1H-indol-1-yl)acetyl)-N-(6-bromopyridin-2-yl)-4-fluoropyrrolidine-2-carboxamide] showed an IC50 of under 1 µM. `O=C(c1cn(CC(=O)N2[C@@H]3C[C@@H]3C[C@H]2C(=O)NCc2cccc(Cl)c2F)c2ccccc12)C1CC1` [Compound 22, (1R,3S,5R)-N-(3-chloro-2-fluorobenzyl)-2-(2-(3-(cyclopropanecarbonyl)-1H-indol-1-yl)acetyl)-2-azabicyclo[3.1.0]hexane-3-carboxamide] gave an IC50 of under 1 µM. In the case of `CC(=O)c1cn(CC(=O)N2C[C@H](F)C[C@H]2C(=O)Nc2cccc(Br)n2)c2ccc(C3(NC(=O)OC(C)(C)C)CC3)cc12` [Compound 123, tert-butyl 1-(3-acetyl-1-(2-((2S,4R)-2-(6-bromopyridin-2-ylcarbamoyl)-4-fluoropyrrolidin-1-yl)-2-oxoethyl)-1H-indol-5-yl)cyclopropylcarbamate], the IC50 is reported as under 1 µM.

Reference: patent US9758537B2 (Achillion Pharmaceuticals, Inc., priority 2014, dated 2017)
